Data from US20170362283A1, “NISIN-BASED COMPOUNDS AND USE THEREOF IN THE TREATMENT OF BACTERIAL INFECTIONS” (UNIVERSITEIT UTRECHT HOLDING B.V., priority 2015, published 2017).
Values after ≈ are worked out from the molar mass of the structure shown. Read-outs that look alike come from different tables or passages of the source.

Tests used:
[1] = Serum stability; format: in vitro ADME; conditions: human serum, 37° C., after 24 hours; read-out: stability in human serum, remained intact
Experimental: 2 mg/mL peptide solutions were prepared in 26% DMSO in MilliQ. Duplicate samples were prepared with […] peptide solution and […] human serum, making the final DMSO concentration 2%. The samples were incubated at 37° C., and samples were taken at t=0, 1, 2, 4 and 24 hours as follows: to 100 μL serum solution, 200 μL MeOH (containing 0.075 mg/mL ethylparaben as an internal standard) was added to precipitate the proteins. The sample was vortexed briefly and allowed to stand for 10 min at RT. The samples were then centrifuged at 13,000 rpm for 5 min, and the supernatant was taken and stored at −20° C. until analysis. Each sample was analyzed by HPLC on a C4 column. The peaks were integrated and normalized to the internal standard.

[2] = tested on: MRSA USA300; format: cell-based, Staphylococcus aureus; conditions: duplicate experiments
Experimental: (§1) Determining the MIC value is a standard technique well known to the skilled person, in particular the MIC value can be measured using method M07-A9 (CLSI standard, January 2012, Vol. 32, No. 2, “Methods for Dilution Antimicrobial Susceptibility Tests for Bacteria That Grow Aerobically”).
(§2) Different microorganisms (from glycerol stock) were plated out on blood agar and incubated at 37° C. for 24 hours. A colony was selected and 2×5 mL of TSB was inoculated. The samples and a sterile control were cultured for 16-20 hours at 37° C. Comparative compound B is nisin acting as a control. Comparative compound C is vancomycin, also acting as a control. Comparative compounds A, D and E are also control compounds not part of the present invention.
(§3) The overnight cultures were diluted to 0.5×10^6 CFU in TSB. 50 μL of the bacterial solution was added to each well and the plates were sealed with an adhesive membrane and incubated at 37° C. for 16 hours. The next day, the plates were visually inspected for bacterial growth.

[3] = tested on: MRSA WKZ2; format: cell-based, Staphylococcus aureus; conditions: duplicate experiments
Experimental: as §1, §2, §3

[4] = tested on: B. subtilis
Experimental: as §1
as §2, with “Comparative compound C is vancomycin, also acting as a control.” left out
as §3

[5] = tested on: S. aureus
Experimental: as §1
as §2, with “Comparative compound C is vancomycin, also acting as a control.” left out
as §3

[6] = tested on: E. coli
Experimental: as §1
as §2, with “Comparative compound C is vancomycin, also acting as a control.” left out
as §3

[7] = tested on: M. luteus; format: cell-based
Experimental: as §1, §2, §3

[8] = tested on: VRE 155; format: cell-based; conditions: duplicate experiments
Experimental: as §1, §2, §3

[9] = tested on: thirty VRE strains

C=C1NC(=O)[C@H]([C@@H](C)CC)NC(=O)[C@H](NC(=O)C(=CC)NC(=O)[C@@H](N)[C@@H](C)CC)CSC[C@@H](C(=O)N[C@H]2C(=O)N3CCC[C@H]3C(=O)NCC(=O)N[C@H](C(=O)N[C@@H](CCCCN)C(=O)NCCCCCCCCCC)CS[C@H]2C)NC(=O)[C@H](CC(C)C)NC1=O [(6)]
remaining at 24 h, 0.15 mg/mL [1]: 94% | MIC values MRSA USA300 [2]: 16 mg/L (≈ 12.4 µM) | MIC values MRSA WKZ2 [3]: 16 mg/L (≈ 12.4 µM) | MIC values B. subtilis ([4]; duplicate experiments): 4 to 8 mg/L | MIC values S. aureus ([5]; duplicate experiments): 16 mg/L (≈ 12.4 µM) | MIC values E. coli ([6]; duplicate experiments): 64 mg/L (≈ 49.6 µM) | MIC values M. luteus ([7]; duplicate experiments): 2 mg/L (≈ 1.55 µM) | MIC values VRE 155 [8]: 8 mg/L (≈ 6.2 µM)

C=C1NC(=O)[C@H]([C@@H](C)CC)NC(=O)[C@H](NC(=O)C(=CC)NC(=O)[C@@H](N)[C@@H](C)CC)CSC[C@@H](C(=O)N[C@H]2C(=O)N3CCC[C@H]3C(=O)NCC(=O)N[C@H](C(=O)N[C@@H](CCCCN)C(=O)NC/C=C(\C)CC/C=C(\C)CCC=C(C)C)CS[C@H]2C)NC(=O)[C@H](CC(C)C)NC1=O [(12)]
remaining at 24 h, 0.15 mg/mL [1]: > 50% | MIC values MRSA USA300 [2]: 16 mg/L (≈ 11.8 µM) | MIC values MRSA WKZ2 [3]: 16 mg/L (≈ 11.8 µM) | MIC values B. subtilis ([4]; duplicate experiments): 4 mg/L (≈ 2.95 µM) | MIC values S. aureus ([5]; duplicate experiments): 8 mg/L (≈ 5.91 µM) | MIC values E. coli ([6]; duplicate experiments): >64 mg/L | MIC values M. luteus ([7]; duplicate experiments): 2 mg/L (≈ 1.48 µM) | MIC values VRE 155 [8]: 8 mg/L (≈ 5.91 µM)

C=C1NC(=O)[C@H]([C@@H](C)CC)NC(=O)[C@H](NC(=O)C(=CC)NC(=O)[C@@H](N)[C@@H](C)CC)CSC[C@@H](C(=O)N[C@H]2C(=O)N3CCC[C@H]3C(=O)NCC(=O)N[C@H](C(=O)N[C@@H](CCCCN)C(=O)NCCCn3cc(CCC(=O)N(CCCCCCCCCC)CCCCCCCCCC)nn3)CS[C@H]2C)NC(=O)[C@H](CC(C)C)NC1=O [Compound (24) with R1-group (b)]
MIC values B. subtilis [4]: >64 mg/L | MIC values S. aureus [5]: >64 mg/L | MIC values E. coli [6]: >64 mg/L | MIC values M. luteus [7]: 8 mg/L (≈ 4.97 µM)

C=C1NC(=O)[C@H]([C@@H](C)CC)NC(=O)[C@H](NC(=O)C(=CC)NC(=O)[C@@H](N)[C@@H](C)CC)CSC[C@@H](C(=O)N[C@H]2C(=O)N3CCC[C@H]3C(=O)NCC(=O)N[C@H](C(=O)N[C@@H](CCCCN)C(=O)NCCCCCCCCCCCCCC)CS[C@H]2C)NC(=O)[C@H](CC(C)C)NC1=O [(10)]
remaining at 24 h, 0.15 mg/mL [1]: > 50% | MIC values MRSA USA300 [2]: 64 mg/L (≈ 47.6 µM) | MIC values MRSA WKZ2 [3]: 32 mg/L (≈ 23.8 µM) | MIC values B. subtilis ([4]; duplicate experiments): 4 mg/L (≈ 2.97 µM) | MIC values S. aureus ([5]; duplicate experiments): 16 mg/L (≈ 11.9 µM) | MIC values E. coli ([6]; duplicate experiments): >64 mg/L | MIC values M. luteus ([7]; duplicate experiments): 1 to 2 mg/L | MIC values VRE 155 [8]: 4 mg/L (≈ 2.97 µM) | MIC ([9]; VRE strain E0013, GBR, vanA): 4 mg/L (≈ 2.97 µM) | MIC ([9]; VRE strain E0072, NLD, vanA): 2 mg/L (≈ 1.49 µM) | MIC ([9]; VRE strain E0300, USA, vanA): 8 to 16 mg/L | MIC ([9]; VRE strain E0321, FRA, vanA): 2 mg/L (≈ 1.49 µM) | MIC ([9]; VRE strain E0333, ISR, vanA): 4 mg/L (≈ 2.97 µM) | MIC ([9]; VRE strain E0338, ITA, vanA): 4 mg/L (≈ 2.97 µM) | MIC ([9]; VRE strain E0341, GBR, vanA): 4 mg/L (≈ 2.97 µM) | MIC ([9]; VRE strain E0506, AUS, vanA): 8 mg/L (≈ 5.94 µM) | MIC ([9]; VRE strain E0745, NLD, vanA): 4 mg/L (≈ 2.97 µM) | MIC ([9]; VRE strain E1130, USA, vanA): 4 mg/L (≈ 2.97 µM) | MIC ([9]; VRE strain E1441, GRC, vanA): 4 mg/L (≈ 2.97 µM) | MIC ([9]; VRE strain E1679, BRA, vanA): 4 mg/L (≈ 2.97 µM) | MIC ([9]; VRE strain E1763, BEL, vanA): 8 mg/L (≈ 5.94 µM) | MIC ([9]; VRE strain E2297, USA, vanA): 2 mg/L (≈ 1.49 µM) | MIC ([9]; VRE strain E2359, SGP, vanB): 2 mg/L (≈ 1.49 µM) | MIC ([9]; VRE strain E2365, HUN, vanB): 1 mg/L (≈ 0.743 µM) | MIC ([9]; VRE strain E2373, SRB, vanA): 4 mg/L (≈ 2.97 µM) | MIC ([9]; VRE strain E6016, LVA, vanA): 2 to 4 mg/L | MIC ([9]; VRE strain E7312, NLD, vanA): 2 mg/L (≈ 1.49 µM) | MIC ([9]; VRE strain E7314, NLD, vanB): 4 mg/L (≈ 2.97 µM) | MIC ([9]; VRE strain E7319, NLD, vanA): 2 mg/L (≈ 1.49 µM) | MIC ([9]; VRE strain E7329, NLD, vanA): 2 mg/L (≈ 1.49 µM) | MIC ([9]; VRE strain E7401, NLD, vanB): 4 mg/L (≈ 2.97 µM) | MIC ([9]; VRE strain E7403, NLD, vanB): 1 mg/L (≈ 0.743 µM) | MIC ([9]; VRE strain E7413, NLD, vanA): 4 mg/L (≈ 2.97 µM) | MIC ([9]; VRE strain E7424, NLD, vanB): 1 to 2 mg/L | MIC ([9]; VRE strain E7464, NLD, vanB): 4 mg/L (≈ 2.97 µM) | MIC ([9]; VRE strain E8218, NLD, vanB): 2 mg/L (≈ 1.49 µM) | MIC ([9]; VRE strain E8235, NLD, vanB): 4 mg/L (≈ 2.97 µM) | MIC ([9]; VRE strain E8237, NLD, vanA): 8 mg/L (≈ 5.94 µM)
